Columns and labels:
[1] = test system: IMR32 human neuroblastoma cells; test: MTT reduction assay: protection of IMR32 cells from βA insult; assay type: cell-based
Method: (§1) The neuronal cell protection by the extract or combination of extracts was determined by observing the differences in the cell viability of βA (both 25-35 and 1-42) treated cells, βA (both 25-35 and 1-42) treated cells further including an extract or a combination of extracts according to the invention, and a DMSO control.
(§2) The degree of βA insult was measured by 3-[4,5-dimethylthiazol-2-yl]-2,5-diphenyltetrazolium bromide (MTT) reduction assay. See Kim et al., Neurosci Lett 303, 57 (2001), Park et al., J Nat Prod 65, 1227 (2002) and Kim et al., Plant Medica 68, 375 (2002). The detection of cell growth or cell death can be determined by observing the conversion of MTT to the colored product, MTT formazan, the concentration of which can be measured colorimetrically at 550 nm. See Kim et al., Neurosci Lett 303, 57 (2001).
(§3) The extract or combination of extracts' ability to protect PC12 cells from βA insult was investigated according to the published procedure. See Kim et al., Neurosci Lett 303, 57 (2001), Park et al., J Nat Prod 65, 1227 (2002) and Kim et al., Plant Medica 68, 375 (2002). For the bioassay, 90 μL of exponentially growing cells (2,000 cells per mL) were plated in 96-well tissue culture plates. Cells were incubated with βA(1-42) (2.0 μg/mL, prepared from a stock solution (1.0 mg/mL in dimethyl sulfoxide (DMSO))) and test compound at various concentrations (50, 10, 2, 0.4, and 0.08 μg/mL) for 24 hours. The final DMSO concentration was less than 1%. The extract or combination of extracts' ability to protect PC12 cells from βA(1-42) insult was determined by measuring the cell's potential to reduce MTT with respect to the treatment of cells with 1% DMSO only and the treatment of cells with […] βA(1-42) and 1% DMSO without the presence of test extract or a combination of extracts. After the incubation of cells in MTT solution (25 μL per well, 1 mg/mL stock solution) for 1 h at 37° C., 100 μL Lysing buffer (50% aqueous dimethylformamide (DMF) and 20% sodium dodecyl sulfate (SDS) at pH 4.7) was added and incubated overnight at 37° C. Optical density of the resulting solutions was colorimetrically determined at 550 nm using a microplate reader. Dose-response curves were prepared and the results were expressed as ED50 values in μg/mL (Table 1). Curcumin and (±)-α-tocopherol (vitamin-E) were used as reference compounds. Bioassay using βA(25-35) was similarly performed. The extract or combination of extracts' ability to protect IMR32 and HUVEC cells from βA insult was also similarly investigated.
(§4) PC12 cells were obtained from the American Type Culture Collection (Rockville, Md.). Cells were routinely cultured on a polystyrene-coated Corning tissue culture plate (Corning, New York, N.Y.). Culture media and supplements were obtained from Life Technologies (Grand Island, N.Y.). Cells were maintained in high glucose Dulbecco's modified Eagle medium, 10% horse serum, 5% fetal calf serum, and 1% penicillin/streptomycin. See Kim et al., Neurosci Lett 303, 57 (2001), Park et al., J Nat Prod 65, 1227 (2002) and Kim et al., Plant Medica 68, 375 (2002). IMR32 human neuroblastoma cells were obtained from the American Type Culture Collection (ATCC). Normal umbilical human vein endothelial (HUVEC) cells were obtained from Clonetics (San Diego, Calif.). Cells were routinely cultured on a polystyrene-coated Corning tissue culture plate (Corning, New York, N.Y.). IMR32 cells were grown in high glucose Dulbecco's Modified Eagle Medium (DMEM), 10% horse serum, 5% fetal calf serum, and 1% penicillin/streptomycin. HUVEC cells were grown in EGM-2 Bullet Kit (Clonetics, San Diego, Calif.). For the bioassay using βA(25-35), 100 μl of exponentially growing IMR32 and HUVEC cells (2,000 and 500 cells per ml, respectively) were plated in 96-well tissue culture plates. A different number of cells per ml was used for the experiment because of the cell size difference of HUVEC cells with respect to IMR32 cells and PC12 cells. […]

HUVEC cells = test: MTT reduction assay: protection of HUVEC cells from βA insult; assay type: cell-based, human
Method: as §1, §2, §3, §4

PC12 cells = test: MTT reduction assay: protection of PC12 cells from βA insult; assay type: cell-based; conditions: 24 hours
Method: as §1, §2, §3, §4

[2] = test system: PC12, IMR32, and HUVEC cells; test: Cell protection from βA peptide insult, stated in words; assay type: cell-based
Method: as §1
as §2, with “See Kim et al., Neurosci Lett 303, 57 (2001).” left out
The extract or combination of extracts' ability to protect PC12 cells from βA insult was investigated according to the published procedure. […] The extract or combination of extracts' ability to protect PC12 cells from βA(1-42) insult was determined by measuring the cell's potential to reduce MTT with respect to the treatment of cells with 1% DMSO only and the treatment of cells with 1.0 μg/mL βA(1-42) and 1% DMSO without the presence of test extract or a combination of extracts. […] Optical density of the resulting solutions was colorimetrically determined at 550 nm using a microplate reader. […]

| Compound | ED50, cell protection against βA insult ([1]; βA(1-42)) | ED50, cell protection against βA insult ([1]; βA(25-35)) | ED50, cell protection against βA insult (HUVEC cells; βA(1-42)) | ED50, cell protection against βA insult (HUVEC cells; βA(25-35)) | ED50, cell protection against βA insult (PC12 cells; βA(1-42)) | ED50, cell protection against βA insult (PC12 cells; βA(25-35)) | protection of cells from βA peptide insult (in words) [2] |
| --- | --- | --- | --- | --- | --- | --- | --- |
| CC(C)c1cc2c(c(O)c1O)[C@@]13CCCC(C)(C)[C@@H]1[C@@H](O)C2OC3=O [RS-7] | 3.4 µg/mL | 2.9 µg/mL | 3.5 µg/mL | 3.2 µg/mL | 3.1 µg/mL | 2.3 µg/mL | – |
| CC(C)c1cc2c(c(O)c1O)[C@@]13CCCC(C)(C)[C@@H]1[C@H](OC3=O)[C@H]2O [RS-9] | 35.5 µg/mL | 38.3 µg/mL | 34.2 µg/mL | 31.0 µg/mL | 35.4 µg/mL | 33.2 µg/mL | – |
| CCCCC/C=C/C(=O)CCc1ccc(O)c(OC)c1 [6-shogaol [6S], 6-shogaol] | 6.1 µg/mL | 6.3 µg/mL | 5.5 µg/mL | 5.9 µg/mL | 5.7 µg/mL | 5.4 µg/mL | – |
| (±)-α-tocopherol [reference compound] | >50 µg/mL | >50 µg/mL | >50 µg/mL | >50 µg/mL | >50 µg/mL | >50 µg/mL | – |
| CCCCCCCCC=CC(=O)CCc1ccc(O)cc1 [(50), [9]-demothoxyshogaol] | – | – | – | – | – | – | effectively protected cells from βA peptide insult |
| CC(C)c1cc(C=O)c2c(c1O)OC(=O)[C@@]21CCCC(C)(C)[C@@H]1C=O [RS-8] | 14.6 µg/mL | 15.2 µg/mL | 16.7 µg/mL | 15.5 µg/mL | 13.3 µg/mL | 11.6 µg/mL | – |
| COc1cc(C=CC(=O)CC(=O)C=Cc2ccc(O)c(OC)c2)ccc1O [curcumin, 1,7-bis(4-hydroxy-3-methoxyphenyl)-1,6-heptadiene-3,5-dione, reference compound] | 6.3 µg/mL | 7.4 µg/mL | 6.8 µg/mL | 6.2 µg/mL | 7.1 µg/mL | 6.7 µg/mL | – |
| CCCCCCCCCCC(=O)CCc1ccc(O)c(OC)c1 [(45), [9]-dihydroshogaol] | – | – | – | – | – | – | effectively protected cells from βA peptide insult |

From US20070003641A1, “Synergistic pharmaceutical compositions useful in prevention and treatment of beta-amyloid protein-induced disease” (priority 2005, published 2007)
